Experimental findings from patent US20220306630A1, “AGONISTS OF ROR GAMMAt” (BRISTOL-MYERS SQUIBB COMPANY, priority 2019, published 2022) are described below.

Broadly, the EC50 is the concentration that produces a half-maximal response.

This assay addresses T1, RORgT (Homo sapiens, UniProt P51449).
T1 construct: Gal4 (fusion partner); expressed in transfected cells; host or cells: engineered Jurkat cells (Jurkat pEx/Gal/hRORγ CLBD/HYG pG5luc/blast)
T1 sequence (P51449 267-516): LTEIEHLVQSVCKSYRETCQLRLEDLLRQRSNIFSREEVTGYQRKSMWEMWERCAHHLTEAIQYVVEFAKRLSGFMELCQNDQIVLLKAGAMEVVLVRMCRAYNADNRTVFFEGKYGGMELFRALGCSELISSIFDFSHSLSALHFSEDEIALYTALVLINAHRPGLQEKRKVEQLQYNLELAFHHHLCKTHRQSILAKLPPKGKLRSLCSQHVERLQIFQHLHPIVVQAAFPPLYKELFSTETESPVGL
Briefly: RORgT Gal4 Luciferase Reporter Gene Assay. Type of assay: cell-based. The conditions noted are these: engineered Jurkat cells overexpressing RORgT (LBD or full length) with Gal4 Luc reporter; 18 hours at 37° C.; 40 μM to 0.67 nM; read-out: RORg_GAL4 EC50. The essentials:
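Cells exposed to compound 18 hours at 37° C, then lysed for luciferase luminescence. Inhibition of constitutive activity expressed as percent reduction of signal window relative to a control compound.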
(In general: In a reporter assay the amount or activity of a reporter protein is the signal.)

`COc1ccc(Oc2c(Cl)ccc(CN(C)C(=O)c3ccc(S(C)(=O)=O)cc3)c2Cl)cc1C(C)C` [Example 22, N-(2,4-dichloro-3-(3-isopropyl-4-methoxyphenoxy)benzyl)-N-methyl-4-(methylsulfonyl)benzamide]: the EC50 was 95 nM.

For the molecule `CCS(=O)(=O)N1CCC(CC(=O)NCc2ccc(Cl)c(Oc3ccc(OC)c(C(C)C)c3)c2Cl)CC1` [Example 187], the EC50 stood at 522 nM.

Consider `COc1ncc(Oc2c(Cl)ccc(C(=O)NCC3CCN(S(C)(=O)=O)CC3)c2Cl)cc1C(C)C` [Example 72], for which the EC50 is 33 nM. Next, `C=C(C)c1cc(Oc2c(Cl)cc(NC(=O)CC3CCN(S(C)(=O)=O)CC3)cc2Cl)ccc1Cl` [Example 269]: 185 nM; `COc1ccc(Oc2c(Cl)cc(N3CC(CNS(N)(=O)=O)OC3=O)cc2Cl)cc1C(C)C` (stereo not shown) [Example 12, N-[(3-{3,5-dichloro-4-[4-methoxy-3-(propan-2-yl)phenoxy]phenyl}-2-oxo-1,3-oxazolidin-5-yl)methyl]aminosulfonamide]: 1100 nM. For `COCCNC(=O)c1ccc(Cl)c(Oc2ccc(OC)c(C(C)C)c2)c1Cl` [Example 183], the EC50 amounted to 284 nM. For `COc1ccc(Oc2c(Cl)cc(NC(=O)C3(c4cnccn4)CC3)cc2Cl)cc1C(C)C` [Example 346], the EC50 is 816 nM. As to `CC1(c2cc(F)cc(Oc3c(Cl)ccc(C(=O)NCc4ccc(S(C)(=O)=O)cc4)c3Cl)c2)CC1` [Example 276], the EC50 was found to be 5.1 nM. Next, `COc1ccc(Oc2c(Cl)ccc(C(=O)NCCN3CCCC3=O)c2Cl)cc1C(C)C` [Example 83]: 1170 nM; `COc1ncc(Oc2c(Cl)ccc(C(=O)NCC3CCN(S(C)(=O)=O)CC3)c2Cl)cc1C(C)(C)F` [Example 153]: 195 nM; `CCS(=O)(=O)c1ccccc1CNC(=O)c1cc(Cl)c(Oc2ccc(OC)c(C(C)C)c2)c(Cl)c1` [Example 157]: 939 nM.

Regarding `COc1ncc(Oc2c(Cl)ccc(CNC(=O)C3CCN(S(C)(=O)=O)CC3)c2Cl)cc1C(C)C` [Example 144], the EC50 turned out to be 6.6 nM. Under `COc1ccc(Oc2c(Cl)cc(NC(=O)CC#N)cc2Cl)cc1C(C)C` [Example 301] stands 343 nM; under `COc1ccc(Oc2c(Cl)cc(NC(=O)Cc3cn[nH]c3)cc2Cl)cc1C(C)C` [Example 7], 173 nM; under `COc1ccc(Oc2c(Cl)ccc(C#N)c2Cl)cc1C(C)C` [Example 18, 2,4-dichloro-3-(3-isopropyl-4-methoxyphenoxy)benzonitrile], 1870 nM. Next, `CC(C)(F)c1cc(F)cc(Oc2c(Cl)cc(NC(=O)CC3CCN(S(C)(=O)=O)CC3)cc2Cl)c1` [Example 333]: 8.1 nM. On to `COc1ccc(Oc2c(Cl)cc(NC(=O)Cc3cccnc3S(C)(=O)=O)cc2Cl)cc1C(C)C` [Example 240], for which the EC50 was 99 nM. For `COc1ccc(Oc2c(Cl)ccc(C(=O)N(C)CC3CCN(S(N)(=O)=O)CC3)c2Cl)cc1C(C)C` [Example 103], the EC50 came to 50 nM. Take `COc1ncc(Oc2c(Cl)ccc(C(=O)NCc3cccc(S(C)(=O)=O)c3)c2Cl)cc1C(C)C` [Example 138]: the EC50 was determined as 225 nM.

Consider `COc1ccc(Oc2c(Cl)cc(NC(=O)Nc3cccnc3)cc2Cl)cc1C(C)C` [Example 232], for which the EC50 is 285 nM. As to `COc1ccc(Oc2c(Cl)cc(NC(=O)C[C@H]3CCCN(S(=O)(=O)C4CC4)C3)cc2Cl)cc1C(C)C` [Example 318], the EC50 was determined as 76 nM. With `CCS(=O)(=O)N1CC2(CN(CC(=O)Nc3cc(Cl)c(Oc4ccc(OC)c(C(C)C)c4)c(Cl)c3)C2)C1` [Example 190], the EC50 was 989 nM.

Consider `CCS(=O)(=O)N1CCC(CNC(=O)c2ccc(Cl)c(Oc3ccc(OC)c(C(C)C)c3)c2Cl)CC1` [Example 94], for which the EC50 amounted to 26 nM. Next, `COc1ccc(Oc2c(Cl)cc(NC(=O)C3CC3)cc2Cl)cc1C(C)C` [Example 292]: 940 nM; `COc1ccc(Oc2c(Cl)cc(NC(=O)NCCS(N)(=O)=O)cc2Cl)cc1C(C)C` [Example 234]: 635 nM; `CCS(=O)(=O)N1CCN(CC(=O)NCc2ccc(Cl)c(Oc3ccc(OC)c(C(C)C)c3)c2Cl)CC1` [Example 185]: 28 nM. On to `COc1ccc(Oc2c(Cl)cc(NC(=O)Cc3ccnc(N)c3)cc2Cl)cc1C(C)C` [Example 238], for which the concentration giving a half-maximal response (EC50) came to 752 nM. Under `COc1ccc(Oc2c(Cl)cc(NC(=O)CC3CCCN(S(C)(=O)=O)C3)cc2Cl)cc1C(C)C` (racemic) [Example 41, N-(3,5-dichloro-4-(3-isopropyl-4-methoxyphenoxy)phenyl)-2-(1-(methylsulfonyl)piperidin-3-yl)acetamide] stands 356 nM. As to `COc1ccc(Oc2c(Cl)ccc(C(=O)NCc3ccc(=O)[nH]c3)c2Cl)cc1C(C)C` [Example 227, 2,4-dichloro-3-[4-methoxy-3-(propan-2-yl)phenoxy]-N-[(6-oxo-1,6-dihydropyridin-3-yl)methyl]benzamide], the EC50 was found to be 109 nM. Take `CC(=O)NC[C@H]1CN(c2cc(Cl)c(Oc3cc(F)cc(C(C)C)c3)c(Cl)c2)C(=O)O1` [Example 272]: the EC50 was 260 nM. On to `COc1ccc(Oc2c(Cl)ccc(C(=O)N3CCCC3)c2Cl)cc1C(C)C` [Example 210], for which the EC50 amounted to 105 nM.

Regarding `CC(C)c1cc(Oc2c(Cl)ccc(C(=O)NCC3CCN(S(C)(=O)=O)CC3)c2Cl)ccc1F` [Example 113], the EC50 is 27 nM. Take `COc1ccc(Oc2c(Cl)ccc(C(=O)NCC3CCOCC3)c2Cl)cc1C(C)C` [Example 216]: the EC50 was determined as 813 nM. Take `CC(C)c1cc(F)cc(Oc2c(Cl)cc(NC(=O)CC3CC(=O)NC(=O)C3)cc2Cl)c1` [Example 330]: the EC50 was determined as 237 nM. Consider `COC(=O)CNC(=O)c1ccc(Cl)c(Oc2ccc(OC)c(C(C)C)c2)c1Cl` [Example 77], for which the EC50 was 953 nM. Turning to `COc1ccc(Oc2c(Cl)ccc(C(=O)NC[C@H]3CC[C@H](C(=O)OC)CC3)c2Cl)cc1C(C)C` [Example 69], the EC50 was determined as 481 nM.

Regarding `COc1ccc(Oc2c(Cl)ccc(C(=O)NCC3CCN(S(N)(=O)=O)CC3)c2Cl)cc1C(C)C` [Example 96], the EC50 amounted to 13 nM. For `CC(C)c1cc(F)cc(Oc2c(Cl)cc(NC(=O)CC3CCN(S(C)(=O)=O)CC3)cc2Cl)c1` [Example 258], the EC50 amounted to 19 nM.

Take `CCCCNC(=O)c1ccc(Cl)c(Oc2ccc(OC)c(C(C)C)c2)c1Cl` [Example 209]: the EC50 was 659 nM. For the molecule `COc1ccc(Oc2c(Cl)cc(NC(=O)CC3CCN(S(N)(=O)=O)CC3)cc2Cl)cc1C(C)C` [Example 46, N-(3,5-dichloro-4-(3-isopropyl-4-methoxyphenoxy)phenyl)-2-(1-sulfamoylpiperidin-4-yl)acetamide], the EC50 worked out at 438 nM. For the molecule `COc1ccc(Oc2c(Cl)cc(NC(=O)c3c[nH]c4ncccc34)cc2Cl)cc1C(C)C` [Example 349], the EC50 was found to be 1370 nM. Consider `CC(C)c1cc(F)cc(Oc2c(Cl)cc(NC(=O)CN3CCC(S(C)(=O)=O)CC3)cc2Cl)c1` [Example 331], for which the EC50 turned out to be 116 nM. Next, `COc1ccc(Oc2c(Cl)cc(NC(=O)c3ccccc3)cc2Cl)cc1C(C)C` [Example 299]: 20000 nM; `COc1ccc(Oc2c(Cl)cc(NC(=O)NC(C)C)cc2Cl)cc1C(C)C` [Example 34, 1-(3,5-dichloro-4-(3-isopropyl-4-methoxyphenoxy)phenyl)-3-isopropylurea]: 1060 nM; `COc1ccc(Oc2c(Cl)cc(NC(=N)Cc3cccnc3)cc2Cl)cc1C(C)C` [Example 36, N-(3,5-dichloro-4-(3-isopropyl-4-methoxyphenoxy)phenyl)-2-(pyridin-3-yl)acetimidamide]: 455 nM. Regarding `COc1ccc(Oc2c(Cl)cc(NC(=O)c3cccc(S(C)(=O)=O)c3)cc2Cl)cc1C(C)C` [Example 289], the EC50 turned out to be 1480 nM. For `COCCN(C)C(=O)c1ccc(Cl)c(Oc2ccc(OC)c(C(C)C)c2)c1Cl` [Example 182], the EC50 is 355 nM. On to `COc1ccc(Oc2c(Cl)ccc(C(=O)NCCc3ncn[nH]3)c2Cl)cc1C(C)C` [Example 218], for which the EC50 amounted to 328 nM. Take `CC(C)c1cc(Oc2c(Cl)cc(NC(=O)Cc3cccnc3)cc2Cl)ccc1Cl` [Example 265]: the EC50 came to 204 nM.
